Data reported in patent publication US8759363B2, “Quinazoline-based T cell proliferation inhibitors” (Yissum Research Development Company of the Hebrew …, priority 2010, dated 2014).

What was measured:
[1] = tested on: CD8+ (2C) and CD4+ (TEA) T cells; test: MLR, double-positive CD8+1B2+ (2C) or CD4+/Va2+ (TEA) effector cells by FACS; format: cell-based, mouse; conditions: 72 h MLR
Source text: Mice used included male and female 6- to 12-week-old CB6/F1 mice, obtained from the Roscoe B. Jackson Memorial Laboratory (The Jackson Laboratory, Bar Harbor, Me., http://www.jax.org). A breeding pair of transgenic (Tg) H-2b mice expressing the T-cell antigen receptor (TCR) 1B2 from the CD8+ clone 2C with specificity for H-2Ld was kindly provided by Janko Nikolic-Zugic (Memorial Sloan-Kettering Cancer Center, New York, http://www.mskcc.org). A breeding pair of Tg H-2b mice expressing the TCR from the CD4+ clone known as TEA with specificity for I-Ead allopeptide, cross-presented by host APC and bound to I-Ab and was kindly provided by Alexander Y. Rudensky (University of Washington, Seattle). I-Ead allopeptide corresponds to the positions 52 to 68 from the alpha-chain of I-E class II molecules and is expressed in all APCs from H-2b/I-E+ strains (CB6F1-hybrid of C57BL/6 and Balb/c). C57BL/6 mice are H-2b but I-E−, whereas BALB/c are H-2d and I-E+, and therefore their F1 hybrids are H-2b/1-E+ and able to directly present antigen.
Responder 2C splenocytes were harvested, and the cell suspensions were treated with Tris-buffered ammonium chloride to remove RBC. […] On day 3, the MLR cultures were harvested, and analyzed by FACS for CD4 or CD8 levels.
FACS analysis was performed using a modified FACScan (BD Biosciences, Mountain View, Calif.). Fluorescence data were collected during one minute. […]

[2] = tested on: PBMC and Jurkat cells; test: Cell cycle analysis by FACS; format: cell-based, human; conditions: treated cells, 0.5 μM S101
Procedure: The effects of the inhibition of the cell cycle were analyzed with a fluorescence-activated cell sorter (FACS). Cells were grown in 60 mm diameter plates (Nunc) and were treated with inhibitor for 12 and 24 h. After the indicated time, cells were pooled, pelleted by centrifugation, washed in phosphate-buffered saline (PBS), and fixed with cold 70% ethanol for a minimum of 12 h. Cells were re-pelleted and resuspended in PBS. 50 μg/ml of RNase A was added in the dark for 30 minutes followed by 5 μg/ml of propidium iodide for FACS analysis (Becton Dickinson FACScan).
The fraction of cells in G2 increased from 30% in the untreated cells to 50% in the treated cells.

[3] = tested on: CD3+ cells; test: Proliferation of CD3+ cells purified from PBMC, BrdU; format: cell-based; conditions: Homo sapiens, ConA-stimulated, slightly higher than, read-out: IC50 proliferation of isolated CD3+ cells
Procedure: Blood samples were taken from healthy donors and loaded on a Ficoll density gradient to purify the PBMC population. T cells were purified by human anti-CD3 using an autoMACS instrument (Miltenyi Biotec, Bergisch-Gladbach, Germany), according to the manufacturer's instructions. The identity of T cells was confirmed by flow cytometry, as they stained positive for CD3. Cells were stimulated with ConA (10 μg/ml), ODN2006 (0.5 μg/ml; Enzo Life Sciences), or LPS (50 μg/ml; Sigma-Aldrich, Steinheim, Germany), for 72 h in the presence of the inhibitor, and their proliferation was measured in the BrdU incorporation assay as will be later described.
Proliferation was assessed by BrdU incorporation using a colorimetric ELISA kit (Roche, Germany). Subsequent to labeling with 10 μM BrdU, DNA was denatured and the cells were incubated with anti-BrdU-POD, prior to the addition of colorimetric substrate (TMB). The reaction product was quantified by measuring absorbance at 450 nm in an ELISA plate reader (ELx800 BIO-TEK Instruments Inc.).
PBMC consist of a mixture of mononucleated cells, mostly T cells. To identify the cell type that was inhibited by 2, we first purified T cells from PBMC with an autoMACS apparatus (Miltenyi Biotec), using anti-CD3 antibodies. We were now able to compare three cell populations: total PBMC, CD3+ cells purified from PBMC, and PBMC that had been depleted of CD3+ cells. […]

## COc1cc(-c2nc(Nc3ccc(C)cc3)c3ccccc3n2)cc(OC)c1OC [Compound 2, N-p-tolyl-2-(3,4,5-trimethoxyphenyl)quinazolin-4-amine]
[1]
  percentage of double-positive effector cells: reduced in a dose dependent manner
[2]; untreated 2%
  sub-G1 population: 9.5%
[2]; untreated 30%
  fraction of cells in G2: 50%
[3]
  IC50: > 100 nM
